Test results from patent US11672817B2, “Maltosyl-Isomaltooligosaccharides” (ISOThrive Inc., priority 2016, dated 2023).
No end group written: not given here.

Tests used:
[1] = test system: Weissella viridescens NRRL B-1951; assay: W. viridescens culture absorbance (growth) with nisin; type: cell-based; parameters: key to Corrected ABS 610rs: A600 minus background absorbance taken just after inoculation; conditions: for 91516 ABS 610f: final absorbance, uncorrected
Experimental: Purified nisin A and Z are commercially available and were acquired from Handary S. A. (Brussels Belgium). Certificates of analysis for each lot indicated purities of 95.2 and 99.6% for nisin A and Z, respectively.
100 g De-Man, Rogosa and Sharpe (MRS) media was prepared in a 500 mL Erlenmeyer to contain 5.5% solids in deionized water (18.2 MS2, Hydro Service and Supplies, Gaithersburg, Md.). The media was autoclaved (121° C. 15 min), cooled, and inoculated with 1 mL (0.5 mL culture+0.5 mL glycerol, 40%; frozen at −78° C.) of Weissella viridescens NRRL B-1951 (test strain). The culture was incubated at 31° C. overnight (15 Hr).
The next day, stock solutions of either nisin A or Z were prepared in deionized water to contain 31.3 and 33.7 μg/g of each peptide.
(§1) 100 g MRS media was prepared to contain 5.5% solids. Two sets (one set each for nisin A and nisin Z) of eight Hach-type tubes (Kimble Chase 45066-16100) were prepared. Within each set, in order was added 5.00, 4.95, 4.90, 4.75, 4.50, 4.00, 3.50 and 3.00 g MRS media. The tubes were sealed and autoclaved.
(§2) To each tube was added, of the appropriate nisin stock, 0.00, 0.05, 0.10, 0.25, 0.50, 1.00, 1.50, and 2.00 g. Each tube was inoculated with 0.25 g of late-log W. viridescens NRRL B-1951 culture. The tubes were sealed and the absorbance at 600 nm was quickly measured (Hach DR900). The tubes were segregated by set and incubated at 31° C. overnight (15 Hr).
Each tube was thoroughly mixed to suspend settled cells and the absorbance was measured again at 600 nm. The final absorbance values for each sample were corrected for their respective background (taken just after inoculation, scattered light from added cells). The corrected absorption values were a measure of W. viridescens growth. The corrected values were plotted against nisin concentration and minimum inhibiting concentration approximated via regression.

[2] = test system: Weissella viridescens NRRL B-1951; assay: HPLC of culture supernatants: consumption of glucose and production of organic acids with nisin; type: cell-based; conditions: for acetic acid in the fermentation media: MRS media originally contained 7% acetate
Experimental: as §1, §2
Each tube was sampled (1.5 mL conical polypropylene centrifuge tubes) and centrifuged at 10 kRPM for 10 minutes to remove and suspended cells. The resulting supernatants were filtered (0.2 μm nylon), diluted to 0.5% solids, and analyzed by high pressure liquid chromatography (HPLC, Agilent 1100, refractive index detector and BioRad Ainex HPX-87H column) for consumption of glucose and production of organic acids. The following table illustrates the concentration of sugars such as glucose and production of organic acids during the incubation.
Note that the MRS media originally contained 7% acetate; therefore 7% should be subtracted from the values for acetate in the above table to ascertain the amount of acetate generated during the assay.

**Q.** For “nisin Z (ITSISLCTPGCKTGALMGCNMKTATCNCSIHVSK; not fully specified (residues 2, 5, 33, bridges); also: lantibiotic (thioether rings, dehydrated residues not placed); UniProt P13068 24-57, looked up, variant H27N) [Purified nisin Z, commercially available, acquired from Handary S. A; purity 99.6%; bacteriocin peptide]”, which “inhibition of bacterial growth” value [1] is on record?
**A.** Its value is “can effectively inhibit”.

**Q.** What about the “91516 ABS 610f” value ([1]; nisin Z 0.34 μg/g (tube Z2)) of the same substance?
**A.** Its value is 1.618.

**Q.** And the “91516 ABS 610f” value ([1]; nisin Z 0.77 μg/g (tube Z3))?
**A.** The value was 1.526.

**Q.** And the “91516 ABS 610f” value ([1]; nisin Z 1.58 μg/g (tube Z4))?
**A.** The value was 1.296.

**Q.** And the “91516 ABS 610f” value ([1]; nisin Z 3.19 μg/g (tube Z5))?
**A.** The value was 0.801.

**Q.** And the “91516 ABS 610f” value ([1]; nisin Z 6.31 μg/g (tube Z6))?
**A.** Its value is 0.426.

**Q.** What about the “91516 ABS 610f” value ([1]; nisin Z 9.54 μg/g (tube Z7)) of the same substance?
**A.** The value was 0.384.

**Q.** What about the “91516 ABS 610f” value ([1]; nisin Z 12.61 μg/g (tube Z8)) of the same substance?
**A.** The value was 0.386.

**Q.** And the “Corrected ABS 610rs” value ([1]; nisin Z 0.34 μg/g (tube Z2))?
**A.** Its value is 1.146.

**Q.** And the “Corrected ABS 610rs” value ([1]; nisin Z 0.77 μg/g (tube Z3))?
**A.** Its value is 1.062.

**Q.** What about the “Corrected ABS 610rs” value ([1]; nisin Z 1.58 μg/g (tube Z4)) of the same substance?
**A.** The value was 0.841.

**Q.** And the “Corrected ABS 610rs” value ([1]; nisin Z 3.19 μg/g (tube Z5))?
**A.** The value was 0.359.

**Q.** What about the “Corrected ABS 610rs” value ([1]; nisin Z 6.31 μg/g (tube Z6)) of the same substance?
**A.** Its value is 0.003.

**Q.** What about the “Corrected ABS 610rs” value ([1]; nisin Z 9.54 μg/g (tube Z7)) of the same substance?
**A.** Its value is 0.001.

**Q.** And the “Corrected ABS 610rs” value ([1]; nisin Z 12.61 μg/g (tube Z8))?
**A.** Its value is 0.001.

**Q.** And the “Maltotriose in the fermentation media” value ([2]; nisin Z 0.34 μg/g (tube Z2))?
**A.** The value was 0.282 %/brix.

**Q.** And the “ethanol in the fermentation media” value ([2]; nisin Z 0.34 μg/g (tube Z2))?
**A.** The value was 0.057 %/brix.

**Q.** And the “formic acid in the fermentation media” value ([2]; nisin Z 0.34 μg/g (tube Z2))?
**A.** Its value is 0.303 %/brix.

**Q.** What about the “fructose in the fermentation media” value ([2]; nisin Z 0.34 μg/g (tube Z2)) of the same substance?
**A.** The value was 0.000 %/brix.

**Q.** What about the “glucose in the fermentation media” value ([2]; nisin Z 0.34 μg/g (tube Z2)) of the same substance?
**A.** The value was 22.988 %/brix.

**Q.** And the “glycerol in the fermentation media” value ([2]; nisin Z 0.34 μg/g (tube Z2))?
**A.** Its value is 0.343 %/brix.

**Q.** What about the “lactic acid in the fermentation media” value ([2]; nisin Z 0.34 μg/g (tube Z2)) of the same substance?
**A.** The value was 6.742 %/brix.

**Q.** What about the “maltose in the fermentation media” value ([2]; nisin Z 0.34 μg/g (tube Z2)) of the same substance?
**A.** Its value is 0.722 %/brix.

**Q.** And the “acetic acid in the fermentation media” value ([2]; nisin Z 0.34 μg/g (tube Z2))?
**A.** Its value is 8.273 %/brix.

**Q.** What about the “Maltotriose in the fermentation media” value ([2]; nisin Z 1.58 μg/g (tube Z4)) of the same substance?
**A.** Its value is 0.265 %/brix.

**Q.** What about the “ethanol in the fermentation media” value ([2]; nisin Z 1.58 μg/g (tube Z4)) of the same substance?
**A.** Its value is 0.083 %/brix.

**Q.** What about the “formic acid in the fermentation media” value ([2]; nisin Z 1.58 μg/g (tube Z4)) of the same substance?
**A.** The value was 0.309 %/brix.

**Q.** What about the “fructose in the fermentation media” value ([2]; nisin Z 1.58 μg/g (tube Z4)) of the same substance?
**A.** The value was 0.000 %/brix.

**Q.** What about the “glucose in the fermentation media” value ([2]; nisin Z 1.58 μg/g (tube Z4)) of the same substance?
**A.** Its value is 24.153 %/brix.

**Q.** What about the “glycerol in the fermentation media” value ([2]; nisin Z 1.58 μg/g (tube Z4)) of the same substance?
**A.** Its value is 0.337 %/brix.

**Q.** What about the “lactic acid in the fermentation media” value ([2]; nisin Z 1.58 μg/g (tube Z4)) of the same substance?
**A.** The value was 5.081 %/brix.

**Q.** And the “maltose in the fermentation media” value ([2]; nisin Z 1.58 μg/g (tube Z4))?
**A.** The value was 1.007 %/brix.

**Q.** And the “acetic acid in the fermentation media” value ([2]; nisin Z 1.58 μg/g (tube Z4))?
**A.** Its value is 8.247 %/brix.

**Q.** And the “Maltotriose in the fermentation media” value ([2]; nisin Z 3.19 μg/g (tube Z5))?
**A.** The value was 0.311 %/brix.

**Q.** And the “ethanol in the fermentation media” value ([2]; nisin Z 3.19 μg/g (tube Z5))?
**A.** The value was 0.067 %/brix.

**Q.** And the “formic acid in the fermentation media” value ([2]; nisin Z 3.19 μg/g (tube Z5))?
**A.** Its value is 0.281 %/brix.

**Q.** And the “fructose in the fermentation media” value ([2]; nisin Z 3.19 μg/g (tube Z5))?
**A.** The value was 0.000 %/brix.

**Q.** What about the “glucose in the fermentation media” value ([2]; nisin Z 3.19 μg/g (tube Z5)) of the same substance?
**A.** The value was 24.698 %/brix.

**Q.** And the “glycerol in the fermentation media” value ([2]; nisin Z 3.19 μg/g (tube Z5))?
**A.** The value was 0.321 %/brix.

**Q.** And the “lactic acid in the fermentation media” value ([2]; nisin Z 3.19 μg/g (tube Z5))?
**A.** The value was 2.995 %/brix.

**Q.** What about the “maltose in the fermentation media” value ([2]; nisin Z 3.19 μg/g (tube Z5)) of the same substance?
**A.** The value was 0.750 %/brix.

**Q.** What about the “acetic acid in the fermentation media” value ([2]; nisin Z 3.19 μg/g (tube Z5)) of the same substance?
**A.** The value was 8.026 %/brix.

**Q.** And the “Maltotriose in the fermentation media” value ([2]; nisin Z 6.31 μg/g (tube Z6))?
**A.** Its value is 0.247 %/brix.

**Q.** And the “ethanol in the fermentation media” value ([2]; nisin Z 6.31 μg/g (tube Z6))?
**A.** Its value is 0.059 %/brix.

**Q.** And the “formic acid in the fermentation media” value ([2]; nisin Z 6.31 μg/g (tube Z6))?
**A.** Its value is 0.267 %/brix.

**Q.** What about the “fructose in the fermentation media” value ([2]; nisin Z 6.31 μg/g (tube Z6)) of the same substance?
**A.** The value was 0.000 %/brix.

**Q.** And the “glucose in the fermentation media” value ([2]; nisin Z 6.31 μg/g (tube Z6))?
**A.** The value was 25.353 %/brix.

**Q.** What about the “glycerol in the fermentation media” value ([2]; nisin Z 6.31 μg/g (tube Z6)) of the same substance?
**A.** Its value is 0.320 %/brix.

**Q.** What about the “lactic acid in the fermentation media” value ([2]; nisin Z 6.31 μg/g (tube Z6)) of the same substance?
**A.** The value was 1.351 %/brix.

**Q.** And the “maltose in the fermentation media” value ([2]; nisin Z 6.31 μg/g (tube Z6))?
**A.** The value was 0.726 %/brix.

**Q.** What about the “acetic acid in the fermentation media” value ([2]; nisin Z 6.31 μg/g (tube Z6)) of the same substance?
**A.** The value was 7.969 %/brix.

**Q.** And the “Maltotriose in the fermentation media” value ([2]; nisin Z 9.54 μg/g (tube Z7))?
**A.** The value was 0.291 %/brix.

**Q.** What about the “ethanol in the fermentation media” value ([2]; nisin Z 9.54 μg/g (tube Z7)) of the same substance?
**A.** The value was 0.065 %/brix.

**Q.** What about the “formic acid in the fermentation media” value ([2]; nisin Z 9.54 μg/g (tube Z7)) of the same substance?
**A.** The value was 0.263 %/brix.

**Q.** And the “fructose in the fermentation media” value ([2]; nisin Z 9.54 μg/g (tube Z7))?
**A.** Its value is 0.000 %/brix.

**Q.** And the “glucose in the fermentation media” value ([2]; nisin Z 9.54 μg/g (tube Z7))?
**A.** The value was 25.501 %/brix.

**Q.** And the “glycerol in the fermentation media” value ([2]; nisin Z 9.54 μg/g (tube Z7))?
**A.** Its value is 0.335 %/brix.

**Q.** And the “lactic acid in the fermentation media” value ([2]; nisin Z 9.54 μg/g (tube Z7))?
**A.** Its value is 1.431 %/brix.

**Q.** What about the “maltose in the fermentation media” value ([2]; nisin Z 9.54 μg/g (tube Z7)) of the same substance?
**A.** The value was 0.895 %/brix.

**Q.** And the “acetic acid in the fermentation media” value ([2]; nisin Z 9.54 μg/g (tube Z7))?
**A.** The value was 8.026 %/brix.

**Q.** And the “Maltotriose in the fermentation media” value ([2]; nisin Z 12.61 μg/g (tube Z8))?
**A.** The value was 0.318 %/brix.

**Q.** And the “ethanol in the fermentation media” value ([2]; nisin Z 12.61 μg/g (tube Z8))?
**A.** The value was 0.148 %/brix.

**Q.** And the “formic acid in the fermentation media” value ([2]; nisin Z 12.61 μg/g (tube Z8))?
**A.** The value was 0.299 %/brix.

**Q.** And the “fructose in the fermentation media” value ([2]; nisin Z 12.61 μg/g (tube Z8))?
**A.** Its value is 0.000 %/brix.

**Q.** And the “glucose in the fermentation media” value ([2]; nisin Z 12.61 μg/g (tube Z8))?
**A.** The value was 25.740 %/brix.

**Q.** And the “glycerol in the fermentation media” value ([2]; nisin Z 12.61 μg/g (tube Z8))?
**A.** The value was 0.346 %/brix.

**Q.** And the “lactic acid in the fermentation media” value ([2]; nisin Z 12.61 μg/g (tube Z8))?
**A.** The value was 1.652 %/brix.

**Q.** And the “maltose in the fermentation media” value ([2]; nisin Z 12.61 μg/g (tube Z8))?
**A.** Its value is 0.876 %/brix.

**Q.** What about the “acetic acid in the fermentation media” value ([2]; nisin Z 12.61 μg/g (tube Z8)) of the same substance?
**A.** Its value is 8.261 %/brix.
